Experimental data from US20080249061A1, “Photostable Pharmaceutical Composition Containing Brivudine for the Treatment of Herpetic Keratitis” (priority 2005, published 2008).
Several values for one entry are separate records, joined by “and”; a condition that tells them apart may be missing. Equal values may be shown once.

Columns and labels:
clinical HSV-1 strains = conditions: panel of 23 clinical HSV-1 strains; cited from earlier work
clinical VZV strains = conditions: 13 clinical VZV strains; cited from earlier work
[1] = additional studies on drug product-tolerability; type: in vivo
From the text: Formulations based on film formers are commonly used as artificial tear drops. They are approved since decades without any general or special adverse effects published.

[2] = intra ocular bioavailability study in rabbit
[3] = Photostability test (SUNTEST CPS+, 320-800 nm); type: physicochemical; conditions: after irradiation of one hour, no film former contained
Description: The photo stability tests themselves have been performed using a SUNTEST CPS+ instrument of the company Atlas. The applied irradiation energy is indicated below: • Irradiation energy (time): 1.3 J/cm^2 (10 min), 2.6 J/cm^2 (20 min), 4.0 J/cm^2 (30 min), 8.9 J/cm^2 (67 min), 26.7 J/cm^2 (201 min) • Wave length range: 320-800 nm

[4] = system: clinical isolates (HSV-1); conditions: panel of 20 clinical isolates, two similar assays; cited from earlier work

Structure (SMILES)	mean IC50 (clinical HSV-1 strains) [µg/mL]	mean IC50 (clinical VZV strains) [µg/mL]	influence of brivudine on the drug product-tolerability ([1]; formulations based on film formers)	systemic absorption in the blood ([1]; in vivo)	time brivudine remains in the ocular region ([1]; ocular region, other: ophthalmic (topical ocular))	active in blood [2]	presence of the active substance in the cornea [2] [h]	starting amount of brivudine recovered [3] [%]	mean IC50 [4]
Nc1nc2c(ncn2COCCO)c(=O)[nH]1 [acyclovir]	0.92	0.2	–	–	–	–	–	–	–
O=c1[nH]c(=O)n([C@H]2C[C@H](O)[C@@H](CO)O2)cc1/C=C/Br [brivudine, (E)-5-(2-bromovinyl)-2′-deoxyuridine]	0.52	0.001	no deterioration of the pharmaceutical properties was observed	without systemic absorption in the blood	more than 2 hours	never found in blood	≥ 6	33.4	–
Nc1nc2c(ncn2CCC(CO)CO)c(=O)[nH]1 [penciclovir]	–	0.91	–	–	–	–	–	–	0.6 µg/mL and 0.8 µg/mL
